Experimental data as given in patent US6608036B1, “Oligonucleotide N3′→P5′ thiophosphoramidates: their synthesis and administration to treat neoplasms” (Geron Corporation, priority 1999, dated 2003).
Like-named read-outs stand apart in the source and are kept apart here.

Assays:
[1] = tested on: complementary natural RNA oligomer; assay: Thermal dissociation (Tm) of duplexes with complementary RNA strand; type: binding; details: 150 mM NaCl; for Tm, melting temperature of the duplexes: 10 mM sodium phosphate buffer pH 7.4, ±0.5° C.
Procedure: ^31P NMR spectra were obtained on a Varian 400 Mhz spectrometer. ^31P NMR spectra were referenced against 85% aqueous phosphoric acid. Anion exchange HPLC was performed using a Dionex DX 500 Chromatography System, with a Pharmacia Bitotech Mono Q HR 5/5 or 10/16 ion exchange columns. Mass spectral analysis was performed by Mass Consortium, San Diego, Calif. MALDI-TOF analysis of oligonucleotides was obtained using a PerSpective Biosystems Voyager Elite mass spectrometer with delayed extraction. Thermal dissociation experiments were conducted on a Cary Bio 100 UV-Vis spectrometer.
Duplex formation properties of oligonucleotide phosphoramidates with complementary RNA strand were evaluated using thermal dissociation experiments. […] Also, the increase in the thermal stability of duplexes was similar to that observed for the phosphoramidate oligomers.

[2] = tested on: telomerase (affinity-purified extract from 293 cells over-expressing hTERT); assay: Bio-Tel FlashPlate telomerase activity assay; type: biochemical, human; details: telomerase inhibition
[3] = tested on: HME50-5E cells; assay: Reduction of telomere length in tumor cells (TRF analysis); type: cell-based, human; details: for telomere length by TRF analysis: about 0.5 μM, measured at 10, 20, 40 and 80 days (FIG. 7)
Procedure: Colonies of human breast epithelial cells (spontaneously immortalized) were prepared using standard methods and materials. Colonies were prepared by seeding 15-centimeter dishes with about 10^6 cells in each dish. The dishes were incubated to allow the cell colonies to grow to about 80% confluence, at which time each of the colonies were divided into two groups. One group was exposed to a subacute dose of thiophosphoramidate polynucleotide SEQ ID NO:2 at a predetermined concentration (e.g., between about 100 nM and about 20 μM) for a period of about 4-8 hours after plating following the split. The second group of cells were similarly exposed to mismatch control oligonucleotide SEQ ID NO:4.
Each group of cells is then allowed to continue to divide, and the groups are split evenly again (near confluence). The same number of cells were seeded for continued growth. The test thiophosphoramidate oligonucleotide or control oligonucleotide was added every fourth day to the samples at the same concentration delivered initially. In one experiment the cells were additionally treated with FuGENE6™ (Boehringer-Mannhiem) following manufacturers instructions. FuGENE6™ enhances oligonucleotide uptake by the cells.
Telomere length was determined by digesting the DNA of the cell samples using restriction enzymes specific for sequences other than the repetitive T2AG3 sequence of human telomeres (TRF analysis). The digested DNA was separated by size using standard techniques of gel electrophoresis to determine the lengths of the telomeric repeats, which appear, after probing with a telomere DNA probe, on the gel as a smear of high-molecular weight DNA (approximately 2 Kb-15 Kb). FIGS. 4 and 5 show examples of such experiments.
The HME50-5E cells were incubated with one of the thiophosphoramidate polynucleotides shown in SEQ ID NOs:2 and 8. The mismatch oligonucleotide SEQ ID NO:4 was used as a control. All polynucleotides were used at a concentration of about 0.5 μM using the protocol described above. The length of the telomeres were measured at 10, 20, 40 and 80 days. […] In addition to the HME50-5E cells described above, this assay can be performed with any telomerase-positive cell line, such as HeLa cells or HEK-293 cells.

[4] = 40% aqueous acetic acid at room temperature
[5] = phosphoramidate backbone, read-out: IC50(nM) phosphoramidate
[6] = thiophosphoramidate backbone, read-out: IC50(nM) thiophosphoramidate

Substance: 5′-GTTAGGGTTAG-3′ (listed as DNA, chemistry not fully specified) [SEQ ID NO:1 phosphoramidate]
- −Tm, increase of Tm relative to the natural phosphodiester counterpart ([1]; 10 mM sodium phosphate buffer pH 7.4, listed as SEQ ID NO:1 np): 27.9 °C
- Tm, melting temperature of the duplexes ([1]; listed as SEQ ID NO:1 np): 72.1 °C
- IC50 [2, 5]: 1.9 nM

Substance: 5′-GTTAGGGTTAG-3′ (listed as DNA, chemistry not fully specified) [SEQ ID NO:1 thiophosphoramidate]
- −Tm, increase of Tm relative to the natural phosphodiester counterpart ([1]; 10 mM sodium phosphate buffer pH 7.4, listed as SEQ ID NO:1 nps): 27.3 °C
- Tm, melting temperature of the duplexes ([1]; listed as SEQ ID NO:1 nps): 71.5 °C
- IC50 [2, 6]: 0.89 nM

Substance: 5′-GTTGAGTGTAG-3′ (listed as DNA, chemistry not fully specified) [SEQ ID NO:3 phosphoramidate, N3′→P5′ phosphoramidate mismatch control, reference compound]
- IC50 [2, 5]: 1000 nM

Substance: 5′-GTTGAGTGTAG-3′ (listed as DNA, chemistry not fully specified) [SEQ ID NO:3 thiophosphoramidate]
- IC50 [2, 6]: 177 nM

Substance: 5′-TAGGGTTAGACAA-3′ (thiophosphoramidate backbone, chemistry not fully specified) [SEQ ID NO:2 thiophosphoramidate]
- −Tm, increase of Tm relative to the natural phosphodiester counterpart ([1]; 10 mM sodium phosphate buffer pH 7.4): 24.8 °C
- Tm, melting temperature of the duplexes [1]: 70.0 °C
- telomere size compared to control cells ([3]; HME50-5E cells coincubated with FuGENE6, even at lowest concentration tested (100 nM) (FIG. 4)): telomere size was reduced compared to the control cells
- telomere length by TRF analysis ([3]; HME50-5E cells): effective in reducing telomere length
- telomere length ([3]; HME50-5E cells, absence of FuGENE6, 1-20 μM (FIG. 4)): large decrease in telomere length
- telomere length (inhibition of telomerase activity) ([3]; treatment of HME50-5E human breast epithelial cells): decrease in telomere length
- IC50 [2, 6]: 0.41 nM

Substance: 5′-TAGGGTTAGACAA-3′ [SEQ ID NO:2 phosphoramidate]
- −Tm, increase of Tm relative to the natural phosphodiester counterpart ([1]; 10 mM sodium phosphate buffer pH 7.4, listed as SEQ ID NO:2 np): 26.5 °C
- Tm, melting temperature of the duplexes ([1]; listed as SEQ ID NO:2 np): 71.7 °C
- Acid Stability, half-live of oligonucleotide ([4]; listed as SEQ ID NO:2 np): 0.5 h

Substance: 5′-TAGGGTTAGACAA-3′ [SEQ ID NO:2 thiophosphoramidate] (thiophosphoramidate backbone, chemistry not fully specified)
- Acid Stability, half-live of oligonucleotide ([4]; listed as SEQ ID NO:2 nps): 6 h

Substance: 5′-TAGGTGTAAGCAA-3′ (listed as DNA, chemistry not fully specified) [SEQ ID NO:4 phosphoramidate, N3′→P5′ phosphoramidate mismatch control, reference compound]
- IC50 [2, 5]: 1000 nM

Substance: 5′-TAGGTGTAAGCAA-3′ (listed as DNA, chemistry not fully specified) [SEQ ID NO:4 thiophosphoramidate]
- IC50 [2, 6]: 79.3 nM

Substance: CAGTTAGGGTTAG (listed as DNA, chemistry not fully specified) [SEQ ID NO:8 thiophosphoramidate]
- telomere length by TRF analysis ([3]; HME50-5E cells): effective in reducing telomere length
- telomere size compared to control cells ([3]; even at lowest concentration tested (1 nM) (FIG. 5)): telomere size was reduced compared to the control cells

Substance: GTTAGGGTTAG (unmodified DNA) [SEQ ID NO:1 po, natural phosphodiester oligomer]
- Tm, melting temperature of the duplexes [1]: 44.2 °C

Substance: TAGGGTTAGACAA (DNA, all phosphodiester, methylation of C not given here) [SEQ ID NO:2 po, natural phosphodiester oligomer]
- Tm, melting temperature of the duplexes [1]: 45.2 °C
